Results from publication PMC2867052 (Journal of contaminant hydrology, 2009).
Where two headings read alike, the source gives them in different places.

What was measured:
[1] = type: physicochemical; settings: for Sherwood Number (Sh): calculated from initial dissolution rate coefficient; for Dissolution Rate Coeff. (kL): model-calibrated initial value
[2] = type: physicochemical; settings: for Dissolution Rate Coeff. (kL): model-calibrated initial value
[3] = 10% by weight HPCD
[4] = 1 Component - HPCD (10% by weight)
[5] = 3 Component - HPCD (10% by weight)
[6] = single-component organic liquid

| Compound | E-Normalized Rate Coeff. (kL/E) ([1]; 3 Component - Water) [h⁻¹] | Sherwood Number (Sh) ([1]; 3 Component - Water) | Dissolution Rate Coeff. (kL) ([1]; 3 Component - Water) [h⁻¹] | E-Normalized Rate Coeff. (kL/E) ([2]; 1 Component - HPCD) [h⁻¹] | Sherwood Number (Sh) [2, 4] | Dissolution Rate Coeff. (kL) [2, 4] [h⁻¹] | E-Normalized Rate Coeff. (kL/E) ([2]; 3 Component - HPCD) [h⁻¹] | Sherwood Number (Sh) [2, 5] | Dissolution Rate Coeff. (kL) [2, 5] [h⁻¹] | 10% HPCD Enhancement Factor (E°) [3, 6] | 10% HPCD Enhancement Factor (E°) ([3]; three-component organic liquid (Tol-EB-BB)) | E-Normalized Rate Coeff. (kL/E) ([1]; 1 Component - Water) [h⁻¹] |
| --- | --- | --- | --- | --- | --- | --- | --- | --- | --- | --- | --- | --- |
| CCCCc1ccccc1 [butylbenzene] | 15 ± 11 | 0.6 | 15 ± 11 | 16 ± 2 | 100 | 1902 ± 240 | 15 ± 4 | 82 | 1900 ± 490 |  |  |  |
| CCc1ccccc1 [ethylbenzene] | 17 ± 3 | 0.6 | 17 ± 3 | 17 ± 3 | 15 | 342 ± 57 | 18 ± 3 | 14 | 341 ± 57 | 20 | 19 |  |
| Cc1ccccc1 [toluene, Toluene] | 21 ± 4 |  | 21 ± 4 | 21 ± 6 | 6 | 161 ± 44 | 21 ± 4 | 6 | 165 ± 30 | 7.7 |  | 22 ± 5 |
